Measured values reported in patent US20110144012A1, “SHORTENED GLUCAGON-LIKE PEPTIDE 1(SGLP-1) PREPARATION METHOD AND APPLICATION” (Dalian D.N. Bio-Engineering Co., Ltd., priority 2005, published 2011).

What was measured:
[1] = in comparison with GLP-1; U.S. Pat. No. 5,424,286; cited from earlier work
[2] = in comparison with GLP-1; cited from earlier work
[3] = test system: NOD mice; assay: Blood glucose-lowering effect on NOD mice (glucose injection); assay type: in vivo; conditions: for blood glucose level, 0 minutes after administration / blood glucose level, 5 minutes after administration / blood glucose level, 10 minutes after administration / blood glucose level, 20 minutes after administration: NOD mice fasted overnight, 200 microliters 40% glucose + 10 microgram peptide; for blood glucose-lowering effect (in words): NOD mice, glucose injection + 10 microgram peptide
Method: Experimental Material and Method: • NOD mice (Provided by Shanghai Laboratory Animal Center, Chinese Academy of Sciences) fasting overnight. • 40% glucose, 0.9% NaCl solution, pure sGLP-1 product (Prepared in Example 1), pure GLP-1 product, reagent kit for blood glucose level determination (Made by Shanghai Institute of Biological Products (SIBP), Ministry of Health P.R.China.) NOD mice fast overnight, and are divided into three groups. Fasting Group 1 is injected with 200 microliters of 40% glucose and 10 microgram of sGLP-1; Fasting Group 2 is injected with 200 microliters of 40% glucose and 10 microgram of GLP-1; Group 3, a control group, is injected with only glucose. Immediately use graduated capillaries (treated with heparin before injection) to sample 20 microliters of blood from their orbital sinuses, add 300 microliters of normal saline to the blood and mix well, centrifuge it at 3000 rpm to remove erythrocyte, and use blood serum for fasting blood glucose level determination. […] The blood serum of the three groups is determined on blood glucose level according to the method in the reagent kit in order to check the blood glucose-lowering effect of each group.

[4] = test system: Healthy C57/BL mice; assay: C peptide secretion promotion effect of sGLP-1 (serum C peptide, radio immunity kit); assay type: in vivo; conditions: fasting healthy C57/BL mice, 10 microgram injected
Method: Experiment Material and Method: • Healthy C57/BL mice (Provided by Shanghai Laboratory Animal Center, Chinese Academy of Sciences) • 0.9% NaCl solution, pure sGLP-1 product (Prepared in Example 1), pure GLP-1 product. • Radio immunity C-peptide determination reagent kit (Made by Shanghai Institute of Biological Products (SIBP), Ministry of Health P.R.China.) • Healthy C57/BL mice are divided into three groups. Use graduated capillary (wash the inner walls of the capillaries with 1 mg/mL heparin and dry the capillaries) to sample 50 microliters of blood from their orbital sinuses first, and inject the three groups of fasting mice with 10 microgram of sGLP-1, 10 microgram of GLP-1 and 200 microliters of normal saline, and regard this time as zero. Repeat the above operation at 5, 10, 20 and 30 minutes after that respectively. Place all the blood samples in a centrifuge tube with 50 microliters of normal saline in it, mix the blood samples and saline well, centrifuge the mixture at 3000 rpm to remove erythrocyte, and determinate C peptide level of blood serum according to the method in this radio immunity reagent kit to check C peptide secretion promotion effect of sGLP-1. • The experiment result is shown in Table 3.

[5] = test system: GK diabetes mellitus rats; assay: Blood glucose-lowering effect experiment in GK diabetes mellitus rats (fasting blood glucose level); assay type: in vivo; conditions: injected 0.1 mg/time, twice a day for two weeks, fasted overnight
Method: Material and Method • GK diabetes mellitus rats (Provided by Shanghai Laboratory Animal Center, Chinese Academy of Sciences)
sGLP-1 sequence is as follows:
• The above eight polypeptides with different sequence is mixed with 0.9% NaCl solution to prepare 1 mg/ml solution, which is standby. • The rats are grouped at random, and fast overnight. Use graduated capillaries (treated with heparin before injection) to sample 20 microliters of blood from their orbital sinuses, add 300 microliters of normal saline to the blood and mix well, centrifuge it at 3000 rpm to remove erythrocyte, and use blood serum for fasting blood glucose level determination. Inject each group of rats with different polypeptides, and use normal saline as Control N. All the rats are injected at 0.1 mg/time, twice a day for two weeks. They must fast overnight, and be sampled according to the above method for fasting blood glucose level determination. […] No. 1 sequence is full-length GLP-1 sequence, in which the second amino acid is changed from A to G, as Control P; No. 2 to No. 5 are the reconstructed sequences with different shortened length.

[6] = test system: NOD mice; assay: Insulinotropic hormone secretion effect of sGLP-1 (serum insulin, radio immunity kit); assay type: in vivo; conditions: fasting NOD mice, 10 microgram injected
Method: Experimental Material and Method: • NOD mice (Provided by Shanghai Laboratory Animal Center, Chinese Academy of Sciences) • 0.9% NaCl solution, pure sGLP-1 product (prepared in Example 1), pure GLP-1 product, and radio immunity insulin determination reagent kit (Made by Shanghai Institute of Biological Products (SIBP), Ministry of Health P.R.China.) NOD mice are divided into three groups. Use graduated capillary (wash the inner walls of the capillaries with 1 mg/mL heparin and dry the capillaries) to sample 50 microliters of blood from their orbital sinuses first, and inject the three groups of fasting mice with 10 microgram of sGLP-1, 10 microgram of GLP-1 and 200 microliters of normal saline, and regard this time as zero. Repeat the above operation at 5, 10, 20 and 30 minutes after that respectively. Place all the blood samples in a centrifuge tube with 50 microliters of normal saline in it, mix the blood samples and saline well, centrifuge the mixture at 3000 rpm to remove erythrocyte, and determinate insulin level of blood serum according to the method in this radio immunity reagent kit to check insulinotropic hormone secretion effect of sGLP-1. • The experiment result is shown in Table 2.

| Substance | blood glucose level, 0 minutes after administration [3] [mmol/L] | blood glucose level, 5 minutes after administration [3] [mmol/L] | blood glucose level, 10 minutes after administration [3] [mmol/L] | blood glucose level, 20 minutes after administration [3] [mmol/L] | blood glucose-lowering effect (in words) [3] | c peptide level, 0 minutes after administration [4] [pmol/mL] | c peptide level, 5 minutes after administration [4] [pmol/mL] | c peptide level, 10 minutes after administration [4] [pmol/mL] | c peptide level, 20 minutes after administration [4] [pmol/mL] | c peptide level, 30 minutes after administration [4] [pmol/mL] | blood glucose-lowering effect (fasting blood glucose level) [5] | insulin level, 0 minutes after administration [6] | insulin level, 5 minutes after administration [6] | insulin level, 10 minutes after administration [6] | insulin level, 20 minutes after administration [6] | insulin level, 30 minutes after administration [6] | also measured |
| --- | --- | --- | --- | --- | --- | --- | --- | --- | --- | --- | --- | --- | --- | --- | --- | --- | --- |
| Exendin 4 | – | – | – | – | – | – | – | – | – | – | – | – | – | – | – | – | concentration required for insulin secretion action (in words) [1]: lower; half time in human body (in words) [2]: longer half time in human body |
| HGEGTFTSDVSSYLEGQAAKEFIAWL [No. 2, shortened glucagon-like peptide 1 of 26 amino acids, X1 is Gly] | 4.08 | 4.34 | 4.28 | 3.98 | have blood glucose-lowering effect | 0.07 | 0.08 | 0.20 | 0.16 | 0.15 | blood glucose-lowering effect prominently exceeding No. 1 | 2.88 10^−6 international unit | 10.56 10^−6 international unit | 19.88 10^−6 international unit | 24.67 10^−6 international unit | 16.45 10^−6 international unit | c peptide secretion promotion (in words) [4]: can prominently promote c peptide secretion; c peptide secretion promotion capacity compared with GLP-1 (in words) [4]: c peptide secretion promotion capacity exceeding GLP-1; blood glucose-lowering effect (fasting blood glucose level) ([5]; listed as sGLP-1): better blood glucose-lowering effect than GLP-1 and its reconstructed sequence; insulin secretion promotion (in words) [6]: can prominently promote insulin secretion; insulin generation stimulation capacity compared with GLP-1 (in words) ([6]; short-time versus medium and long-term): the same short-time insulin generation stimulation capacity as GLP-1 and the medium and long-term insulin generation stimulation capacity stronger than GLP-1 |
| HSEGTFTSDVSSYLEGQAAKEFIAWL [No. 3, shortened glucagon-like peptide 1 of 26 amino acids, X1 is Ser] | – | – | – | – | – | – | – | – | – | – | blood glucose-lowering effect prominently exceeding No. 1 | – | – | – | – | – | – |
| His-Ala-Glu-Gly-Thr-Phe-Thr-Ser-Asp-Val-Ser-Ser-Tyr-Leu-Glu-Gly-Gln-Ala-Ala-Lys-Glu-Phe-Ile-Ala-Trp-Leu-Val-Lys-Gly-Arg [GLP-1] | 4.11 | 5.12 | 4.87 | 4.03 | have blood glucose-lowering effect | 0.07 | 0.08 | 0.15 | 0.11 | 0.09 | – | 3.11 10^−6 international unit | 9.76 10^−6 international unit | 10.63 10^−6 international unit | 11.23 10^−6 international unit | 6.27 10^−6 international unit | – |
